# System: Mycolicibacterium smegmatis
# Test: Antibacterial activity against Mycobacterium smegmatis assessed as bacterial growth inhibition
# Assay type: functional
# Settings: not given
row,SMILES,MIC [µg/mL]
1,CCCCNc1nc(SCCCC)nc2ccccc12,2

# System: not listed separately
# Test: Selectivity index, ratio of IC50 for cytotoxicity against human HepG2 cells to MIC for antibacterial activity against methicillin-sensitive Staphylococcus aureus Newman
# Assay type: toxicity, cell-based
# Settings: not given
row,SMILES,selectivity ratio
1,CCCCNc1nc(SCCCC)nc2ccc(-c3cccc(O)c3)cc12,3

# System: Enterococcus faecium
# Test: Antibacterial activity against Enterococcus faecium DSM-20477 assessed as bacterial growth inhibition
# Assay type: functional
# Settings: not given
row,SMILES,MIC [µg/mL]
1,CCCCSc1nc(SCCCC)c2cc(N)ccc2n1,8
2,CCCCNc1nc(SCCCC)nc2ccc(-c3cccc(O)c3)cc12,4
3,CCCCNc1nc(SCCCC)nc2ccc(-c3ccccc3)cc12,> 128
4,CCCCNc1nc(SCCCC)nc2sccc12,> 128
5,CCCCNc1nc(SCCCC)nc2cc(F)ccc12,> 128
6,CCCCNc1nc(SCCCC)nc2ccccc12,4
7,CCCCNc1nc(SCCCC)nc2n[nH]cc12,> 128

# System: not listed separately
# Test: Selectivity index, ratio of IC50 for cytotoxicity against human HepG2 cells to MIC for antibacterial activity against Enterococcus faecalis DSM-20478
# Assay type: toxicity, cell-based
# Settings: not given
row,SMILES,selectivity ratio
1,CCCCNc1nc(SCCCC)nc2ccc(-c3cccc(O)c3)cc12,3

# System: Escherichia coli
# Test: Antibacterial activity against wild type Escherichia coli DSM-11116 assessed as bacterial growth inhibition
# Assay type: functional
# Settings: not given
row,SMILES,MIC [µg/mL]
1,CCCCSc1nc(SCCCC)c2cc(N)ccc2n1,> 128
2,CCCCNc1nc(SCCCC)nc2ccc(-c3cccc(O)c3)cc12,> 128
3,CCCCNc1nc(SCCCC)nc2ccc(-c3ccccc3)cc12,> 128
4,CCCCNc1nc(SCCCC)nc2sccc12,> 128
5,CCCCNc1nc(SCCCC)nc2cc(F)ccc12,> 128
6,CCCCNc1nc(SCCCC)nc2ccccc12,> 128
7,CCCCNc1nc(SCCCC)nc2n[nH]cc12,> 128

# System: not listed separately
# Test: Cytotoxicity against human HepG2 cells assessed as inhibition of cell growth
# Assay type: toxicity, cell-based
# Settings: not given
row,SMILES,IC50 [µg/mL]
1,CCCCSc1nc(SCCCC)c2cc(N)ccc2n1,> 37
2,CCCCNc1nc(SCCCC)nc2ccc(-c3cccc(O)c3)cc12,15.3
3,CCCCNc1nc(SCCCC)nc2sccc12,> 37

# System: not listed separately
# Test: Stability of the compound in presence of 25kGy gamma irradiation assessed as change in mass and purity by LC-MS analysis
# Assay type: physicochemical
# Settings: not given
row,SMILES,Stability
1,CCCCNc1nc(SCCCC)nc2ccc(-c3ccccc3)cc12,Stable
2,CCCCNc1nc(SCCCC)nc2cc(F)ccc12,Stable
3,CCCCNc1nc(SCCCC)nc2n[nH]cc12,Stable

# System: Streptococcus pneumoniae
# Test: Antibacterial activity against penicillin-resistant Streptococcus pneumoniae DSM-11865 assessed as bacterial growth inhibition
# Assay type: functional
# Settings: not given
row,SMILES,MIC [µg/mL]
1,CCCCSc1nc(SCCCC)c2cc(N)ccc2n1,8
2,CCCCNc1nc(SCCCC)nc2ccc(-c3cccc(O)c3)cc12,16
3,CCCCNc1nc(SCCCC)nc2ccc(-c3ccccc3)cc12,> 128
4,CCCCNc1nc(SCCCC)nc2sccc12,8
5,CCCCNc1nc(SCCCC)nc2cc(F)ccc12,> 128
6,CCCCNc1nc(SCCCC)nc2ccccc12,3
7,CCCCNc1nc(SCCCC)nc2n[nH]cc12,> 128

# System: not listed separately
# Test: Selectivity index, ratio of IC50 for cytotoxicity against human HepG2 cells to MIC for antibacterial activity against Streptococcus pneumoniae DSM-20566
# Assay type: toxicity, cell-based
# Settings: not given
row,SMILES,selectivity ratio
1,CCCCNc1nc(SCCCC)nc2ccc(-c3cccc(O)c3)cc12,3

# System: not listed separately
# Test: Chemical stability of compound in DMSO assessed as change in mass and purity incubated for 2 days by LC-MS analysis
# Assay type: physicochemical
# Settings: 48 h; time 2 day
row,SMILES,Stability
1,CCCCNc1nc(SCCCC)nc2ccc(-c3ccccc3)cc12,Stable
2,CCCCNc1nc(SCCCC)nc2cc(F)ccc12,Stable
3,CCCCNc1nc(SCCCC)nc2n[nH]cc12,Stable

# System: Escherichia coli
# Test: Antibacterial activity against Escherichia coli K12 harbouring TolC-deficient mutant assessed as bacterial growth inhibition
# Assay type: functional
# Settings: not given
row,SMILES,MIC [µg/mL]
1,CCCCSc1nc(SCCCC)c2cc(N)ccc2n1,> 128
2,CCCCNc1nc(SCCCC)nc2ccc(-c3cccc(O)c3)cc12,> 128
3,CCCCNc1nc(SCCCC)nc2ccc(-c3ccccc3)cc12,> 128
4,CCCCNc1nc(SCCCC)nc2sccc12,8
5,CCCCNc1nc(SCCCC)nc2cc(F)ccc12,> 128
6,CCCCNc1nc(SCCCC)nc2ccccc12,2
7,CCCCNc1nc(SCCCC)nc2n[nH]cc12,4

# System: Escherichia coli
# Test: Antibacterial activity against Escherichia coli harbouring TolC-deficient mutant assessed as bacterial growth inhibition
# Assay type: functional
# Settings: not given
row,SMILES,MIC [µg/mL]
1,CCCCNc1nc(SCCCC)nc2ccccc12,2

# System: Enterococcus faecalis
# Test: Antibacterial activity against Enterococcus faecalis DSM-20478 assessed as bacterial growth inhibition
# Assay type: functional
# Settings: not given
row,SMILES,MIC [µg/mL]
1,CCCCSc1nc(SCCCC)c2cc(N)ccc2n1,32
2,CCCCNc1nc(SCCCC)nc2ccc(-c3cccc(O)c3)cc12,2
3,CCCCNc1nc(SCCCC)nc2ccc(-c3ccccc3)cc12,> 128
4,CCCCNc1nc(SCCCC)nc2sccc12,> 128
5,CCCCNc1nc(SCCCC)nc2cc(F)ccc12,> 128
6,CCCCNc1nc(SCCCC)nc2ccccc12,4
7,CCCCNc1nc(SCCCC)nc2n[nH]cc12,> 128

# System: not listed separately
# Test: Chemical stability of compound in DMSO assessed as change in physico-chemical properties incubated for 2 days
# Assay type: physicochemical
# Settings: 48 h; time 2 day
row,SMILES,Stability
1,CCCCNc1nc(SCCCC)nc2ccc(-c3ccccc3)cc12,Stable
2,CCCCNc1nc(SCCCC)nc2cc(F)ccc12,Stable
3,CCCCNc1nc(SCCCC)nc2n[nH]cc12,Stable

# System: Staphylococcus aureus
# Test: Antibacterial activity against methicillin-resistant and vancomycin-intermediate Staphylococcus aureus Mu50 assessed as bacterial growth inhibition
# Assay type: functional
# Settings: not given
row,SMILES,MIC [µg/mL]
1,CCCCSc1nc(SCCCC)c2cc(N)ccc2n1,4
2,CCCCNc1nc(SCCCC)nc2ccc(-c3cccc(O)c3)cc12,> 128
3,CCCCNc1nc(SCCCC)nc2ccc(-c3ccccc3)cc12,> 128
4,CCCCNc1nc(SCCCC)nc2sccc12,> 128
5,CCCCNc1nc(SCCCC)nc2cc(F)ccc12,> 128
6,CCCCNc1nc(SCCCC)nc2ccccc12,4
7,CCCCNc1nc(SCCCC)nc2n[nH]cc12,> 128

# System: Staphylococcus aureus
# Test: Antibacterial activity against methicillin-sensitive Staphylococcus aureus Newman assessed as bacterial growth inhibition
# Assay type: functional
# Settings: not given
row,SMILES,MIC [µg/mL]
1,CCCCSc1nc(SCCCC)c2cc(N)ccc2n1,8
2,CCCCNc1nc(SCCCC)nc2ccc(-c3cccc(O)c3)cc12,2
3,CCCCNc1nc(SCCCC)nc2ccc(-c3ccccc3)cc12,> 128
4,CCCCNc1nc(SCCCC)nc2sccc12,8
5,CCCCNc1nc(SCCCC)nc2cc(F)ccc12,> 128
6,CCCCNc1nc(SCCCC)nc2ccccc12,8
7,CCCCNc1nc(SCCCC)nc2n[nH]cc12,> 128

# System: Staphylococcus aureus
# Test: Antibacterial activity against methicillin-resistant Staphylococcus aureus N315 assessed as bacterial growth inhibition
# Assay type: functional
# Settings: not given
row,SMILES,MIC [µg/mL]
1,CCCCSc1nc(SCCCC)c2cc(N)ccc2n1,4
2,CCCCNc1nc(SCCCC)nc2ccc(-c3cccc(O)c3)cc12,> 128
3,CCCCNc1nc(SCCCC)nc2ccc(-c3ccccc3)cc12,> 128
4,CCCCNc1nc(SCCCC)nc2sccc12,32
5,CCCCNc1nc(SCCCC)nc2cc(F)ccc12,> 128
6,CCCCNc1nc(SCCCC)nc2ccccc12,8
7,CCCCNc1nc(SCCCC)nc2n[nH]cc12,> 128

# System: Mycolicibacterium smegmatis
# Test: Antibacterial activity against Mycobacterium smegmatis mc2 155 assessed as bacterial growth inhibition
# Assay type: functional
# Settings: not given
row,SMILES,MIC [µg/mL]
1,CCCCSc1nc(SCCCC)c2cc(N)ccc2n1,32
2,CCCCNc1nc(SCCCC)nc2ccc(-c3cccc(O)c3)cc12,16
3,CCCCNc1nc(SCCCC)nc2ccc(-c3ccccc3)cc12,> 128
4,CCCCNc1nc(SCCCC)nc2sccc12,16
5,CCCCNc1nc(SCCCC)nc2cc(F)ccc12,> 128
6,CCCCNc1nc(SCCCC)nc2ccccc12,8
7,CCCCNc1nc(SCCCC)nc2n[nH]cc12,> 128

# System: not listed separately
# Test: Selectivity index, ratio of IC50 for cytotoxicity against human HepG2 cells to MIC for antibacterial activity against Enterococcus faecium DSM-20477
# Assay type: toxicity, cell-based
# Settings: not given
row,SMILES,selectivity ratio
1,CCCCNc1nc(SCCCC)nc2ccc(-c3cccc(O)c3)cc12,3

# System: not listed separately
# Test: Chemical stability of compound in DMSO assessed as change in retardation factor incubated for 2 days
# Assay type: physicochemical
# Settings: 48 h; time 2 day
row,SMILES,Stability
1,CCCCNc1nc(SCCCC)nc2ccc(-c3ccccc3)cc12,Stable
2,CCCCNc1nc(SCCCC)nc2cc(F)ccc12,Stable
3,CCCCNc1nc(SCCCC)nc2n[nH]cc12,Stable

# System: Streptococcus pneumoniae
# Test: Antibacterial activity against Streptococcus pneumoniae DSM-20566 assessed as bacterial growth inhibition
# Assay type: functional
# Settings: not given
row,SMILES,MIC [µg/mL]
1,CCCCSc1nc(SCCCC)c2cc(N)ccc2n1,4
2,CCCCNc1nc(SCCCC)nc2ccc(-c3cccc(O)c3)cc12,1
3,CCCCNc1nc(SCCCC)nc2ccc(-c3ccccc3)cc12,> 128
4,CCCCNc1nc(SCCCC)nc2sccc12,8
5,CCCCNc1nc(SCCCC)nc2cc(F)ccc12,> 128
6,CCCCNc1nc(SCCCC)nc2ccccc12,4
7,CCCCNc1nc(SCCCC)nc2n[nH]cc12,> 128

# From ChEMBL document CHEMBL5131432, “Novel 2,4-disubstituted quinazoline analogs as antibacterial agents with improved cytotoxicity profile: Modification of the benzenoid part” (Bioorg Med Chem Lett, 2022)
